Measured values taken from PubChem BioAssay AID2060883 (Molecular Pharmacology Branch, DTP, NCI, 2025).

System: 843782-103-R-J1-PDC complex spheroid viability
Assay: Anticancer human tumor 843782-103-R-J1-PDC patient-derived lung adenocarcinoma cell line growth inhibition [RAS]
Conditions: for IC50: curve of first compound; for viability, T/C: stronger effect = lower value
Procedure, shortened: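 Tumour cells grown as complex spheroids with HUVEC endothelial cells and mesenchymal stem cells, treated with RAS pathway inhibitor combinations. Each agent spans half-log steps from near clinical Cmax, or 10 microM where Cmax is unknown.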

[1] = second compound 0.000949 µM, first compound 0.00316 µM
[2] = second compound 0.000949 µM, first compound 0.01 µM
[3] = second compound 0.000949 µM, first compound 0.0316 µM
[4] = second compound 0.000949 µM, first compound 0.1 µM
[5] = second compound 0.000949 µM, first compound 0.316 µM
[6] = second compound 0.000949 µM, first compound 1 µM
[7] = second compound 0.003 µM, first compound 0.00316 µM
[8] = second compound 0.003 µM, first compound 0.01 µM
[9] = second compound 0.003 µM, first compound 0.0316 µM
[10] = second compound 0.003 µM, first compound 0.1 µM
[11] = second compound 0.003 µM, first compound 0.316 µM
[12] = second compound 0.003 µM, first compound 1 µM
[13] = second compound 0.00949 µM, first compound 0.00316 µM
[14] = second compound 0.00949 µM, first compound 0.01 µM
[15] = second compound 0.00949 µM, first compound 0.0316 µM
[16] = second compound 0.00949 µM, first compound 0.1 µM
[17] = second compound 0.00949 µM, first compound 0.316 µM
[18] = second compound 0.00949 µM, first compound 1 µM
[19] = second compound 0.03 µM, first compound 0.00316 µM
[20] = second compound 0.03 µM, first compound 0.01 µM
[21] = second compound 0.03 µM, first compound 0.0316 µM
[22] = second compound 0.03 µM, first compound 0.1 µM
[23] = second compound 0.03 µM, first compound 0.316 µM
[24] = second compound 0.03 µM, first compound 1 µM
[25] = second compound 0.0949 µM, first compound 0.00316 µM
[26] = second compound 0.0949 µM, first compound 0.01 µM
[27] = second compound 0.0949 µM, first compound 0.0316 µM
[28] = second compound 0.0949 µM, first compound 0.1 µM
[29] = second compound 0.0949 µM, first compound 0.316 µM
[30] = second compound 0.0949 µM, first compound 1 µM
[31] = second compound 0.3 µM, first compound 0.00316 µM
[32] = second compound 0.3 µM, first compound 0.01 µM
[33] = second compound 0.3 µM, first compound 0.0316 µM
[34] = second compound 0.3 µM, first compound 0.1 µM
[35] = second compound 0.3 µM, first compound 0.316 µM
[36] = second compound 0.3 µM, first compound 1 µM
[37] = second compound 0.000949 µM, first compound 3.16 µM
[38] = second compound 0.000949 µM, first compound 10 µM
[39] = second compound 0.003 µM, first compound 3.16 µM
[40] = second compound 0.003 µM, first compound 10 µM
[41] = second compound 0.00949 µM, first compound 3.16 µM
[42] = second compound 0.00949 µM, first compound 10 µM
[43] = second compound 0.03 µM, first compound 3.16 µM
[44] = second compound 0.03 µM, first compound 10 µM
[45] = second compound 0.0949 µM, first compound 3.16 µM
[46] = second compound 0.0949 µM, first compound 10 µM
[47] = second compound 0.3 µM, first compound 3.16 µM
[48] = second compound 0.3 µM, first compound 10 µM
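Note: viability read after seven days of compound exposure.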

SMILES: C=CC(=O)Nc1cc(Nc2nccc(-c3cn(C)c4ccccc34)n2)c(OC)cc1N(C)CCN(C)C + CCn1c(-c2cccnc2C(C)OC)c2c3cc(ccc31)N1CCOC(CC(NC(=O)C(C(C)C)N(C)C(=O)C3(F)CCN(C(=O)C#CC(C)(C)N(C)C)CC3)C(=O)N3CCCC(N3)C(=O)OCC(C)(C)C2)C1
- IC50 (second compound 0.000949 µM): 0.0782 µM
- IC50 (second compound 0.003 µM): 0.194 µM
- IC50 (second compound 0.00949 µM): 0.0764 µM
- IC50 (second compound 0.03 µM): 0.167 µM
- IC50 (second compound 0.0949 µM): 0.0922 µM
- IC50 (second compound 0.3 µM): 0.11 µM
- viability, T/C [1]: 75.9%
- viability, T/C [2]: 60.9%
- viability, T/C [3]: 68.2%
- viability, T/C [4]: 45.1%
- viability, T/C [5]: 33.5%
- viability, T/C [6]: 31.5%
- viability, T/C [7]: 68.7%
- viability, T/C [8]: 57.3%
- viability, T/C [9]: 66.3%
- viability, T/C [10]: 64.3%
- viability, T/C [11]: 39.6%
- viability, T/C [12]: 30.9%
- viability, T/C [13]: 67.5%
- viability, T/C [14]: 69.1%
- viability, T/C [15]: 73%
- viability, T/C [16]: 43.9%
- viability, T/C [17]: 40.8%
- viability, T/C [18]: 26.8%
- viability, T/C [19]: 65.9%
- viability, T/C [20]: 73.6%
- viability, T/C [21]: 58.9%
- viability, T/C [22]: 55.3%
- viability, T/C [23]: 44.4%
- viability, T/C [24]: 31.9%
- viability, T/C [25]: 73.4%
- viability, T/C [26]: 62.6%
- viability, T/C [27]: 60.8%
- viability, T/C [28]: 46.9%
- viability, T/C [29]: 43%
- viability, T/C [30]: 26.4%
- viability, T/C [31]: 68%
- viability, T/C [32]: 66.2%
- viability, T/C [33]: 63.9%
- viability, T/C [34]: 51.6%
- viability, T/C [35]: 35.2%
- viability, T/C [36]: 31.5%

SMILES: Cc1nc(N2CCC3(CC2)COC(C)C3N)c(CO)nc1Sc1ccnc(N)c1Cl (stereo not drawn) + CCn1c(-c2cc(N3CCN(C)CC3)cnc2C(C)OC)c2c3cc(ccc31)-c1csc(n1)CC(NC(=O)C1CC1C)C(=O)N1CCCC(N1)C(=O)OCC(C)(C)C2
- IC50 (second compound 0.000949 µM): 0.0515 µM
- IC50 (second compound 0.003 µM): 0.0318 µM
- IC50 (second compound 0.00949 µM): < 0.0316 µM
- IC50 (second compound 0.03 µM): < 0.0316 µM
- IC50 (second compound 0.0949 µM): < 0.0316 µM
- IC50 (second compound 0.3 µM): < 0.0316 µM
- viability, T/C [3]: 54.4%
- viability, T/C [4]: 42%
- viability, T/C [5]: 40.2%
- viability, T/C [6]: 23.5%
- viability, T/C [37]: 19.4%
- viability, T/C [38]: 19.2%
- viability, T/C [9]: 50%
- viability, T/C [10]: 39.2%
- viability, T/C [11]: 29.5%
- viability, T/C [12]: 22.1%
- viability, T/C [39]: 19.4%
- viability, T/C [40]: 13.4%
- viability, T/C [15]: 26.4%
- viability, T/C [16]: 25.6%
- viability, T/C [17]: 20%
- viability, T/C [18]: 19.6%
- viability, T/C [41]: 15.9%
- viability, T/C [42]: 15.1%
- viability, T/C [21]: 18.6%
- viability, T/C [22]: 17.8%
- viability, T/C [23]: 16.4%
- viability, T/C [24]: 15.5%
- viability, T/C [43]: 15.5%
- viability, T/C [44]: 14.1%
- viability, T/C [27]: 17.4%
- viability, T/C [28]: 13.6%
- viability, T/C [29]: 13.3%
- viability, T/C [30]: 13%
- viability, T/C [45]: 13.5%
- viability, T/C [46]: 12.2%
- viability, T/C [33]: 13.7%
- viability, T/C [34]: 15.5%
- viability, T/C [35]: 15.1%
- viability, T/C [36]: 15.4%
- viability, T/C [47]: 14%
- viability, T/C [48]: 12.4%

SMILES: CC(C)n1nc(-c2ccc3oc(N)nc3c2)c2c(N)ncnc21 + CCn1c(-c2cc(N3CCN(C)CC3)cnc2C(C)OC)c2c3cc(ccc31)-c1csc(n1)CC(NC(=O)C1CC1C)C(=O)N1CCCC(N1)C(=O)OCC(C)(C)C2
- IC50 (second compound 0.000949 µM): 0.00534 µM
- IC50 (second compound 0.003 µM): 0.00342 µM
- IC50 (second compound 0.00949 µM): < 0.000316 µM
- IC50 (second compound 0.03 µM): < 0.000316 µM
- IC50 (second compound 0.0949 µM): < 0.000316 µM
- IC50 (second compound 0.3 µM): < 0.000316 µM
- viability, T/C (second compound 0.000949 µM, first compound 0.000316 µM): 73%
- viability, T/C (second compound 0.000949 µM, first compound 0.001 µM): 70.4%
- viability, T/C [1]: 58.7%
- viability, T/C [2]: 38.6%
- viability, T/C [3]: 24.8%
- viability, T/C [4]: 13.5%
- viability, T/C (second compound 0.003 µM, first compound 0.000316 µM): 49.6%
- viability, T/C (second compound 0.003 µM, first compound 0.001 µM): 57.5%
- viability, T/C [7]: 52.5%
- viability, T/C [8]: 27.7%
- viability, T/C [9]: 19.7%
- viability, T/C [10]: 11%
- viability, T/C (second compound 0.00949 µM, first compound 0.000316 µM): 36.5%
- viability, T/C (second compound 0.00949 µM, first compound 0.001 µM): 36.6%
- viability, T/C [13]: 28.2%
- viability, T/C [14]: 19.7%
- viability, T/C [15]: 11.6%
- viability, T/C [16]: 7.59%
- viability, T/C (second compound 0.03 µM, first compound 0.000316 µM): 22.3%
- viability, T/C (second compound 0.03 µM, first compound 0.001 µM): 19.4%
- viability, T/C [19]: 13.2%
- viability, T/C [20]: 12.6%
- viability, T/C [21]: 7.81%
- viability, T/C [22]: 4.67%
- viability, T/C (second compound 0.0949 µM, first compound 0.000316 µM): 15.6%
- viability, T/C (second compound 0.0949 µM, first compound 0.001 µM): 13.8%
- viability, T/C [25]: 12.8%
- viability, T/C [26]: 10.3%
- viability, T/C [27]: 7.44%
- viability, T/C [28]: 4.77%
- viability, T/C (second compound 0.3 µM, first compound 0.000316 µM): 13.9%
- viability, T/C (second compound 0.3 µM, first compound 0.001 µM): 13.4%
- viability, T/C [31]: 10.7%
- viability, T/C [32]: 9.85%
- viability, T/C [33]: 6.87%
- viability, T/C [34]: 3.78%

SMILES: CC(=O)OC12COC1CC(O)C1(C)C(=O)C(O)C3=C(C)C(OC(=O)C(O)C(NC(=O)OC(C)(C)C)c4ccccc4)CC(O)(C(OC(=O)c4ccccc4)C21)C3(C)C (stereo not drawn) + CCn1c(-c2cc(N3CCN(C)CC3)cnc2C(C)OC)c2c3cc(ccc31)-c1csc(n1)CC(NC(=O)C1CC1C)C(=O)N1CCCC(N1)C(=O)OCC(C)(C)C2
- IC50 (second compound 0.000949 µM): < 0.0316 µM
- IC50 (second compound 0.003 µM): < 0.0316 µM
- IC50 (second compound 0.00949 µM): < 0.0316 µM
- IC50 (second compound 0.03 µM): < 0.0316 µM
- IC50 (second compound 0.0949 µM): < 0.0316 µM
- IC50 (second compound 0.3 µM): < 0.0316 µM
- viability, T/C [3]: 4.09%
- viability, T/C [4]: 3.3%
- viability, T/C [5]: 4.43%
- viability, T/C [6]: 4.14%
- viability, T/C [37]: 4.74%
- viability, T/C [38]: 5.86%
- viability, T/C [9]: 3.09%
- viability, T/C [10]: 3.12%
- viability, T/C [11]: 3.99%
- viability, T/C [12]: 3.29%
- viability, T/C [39]: 6.91%
- viability, T/C [40]: 8.55%
- viability, T/C [15]: 4.74%
- viability, T/C [16]: 4.97%
- viability, T/C [17]: 5.9%
- viability, T/C [18]: 4.93%
- viability, T/C [41]: 5.8%
- viability, T/C [42]: 8.1%
- viability, T/C [21]: 5.08%
- viability, T/C [22]: 4.74%
- viability, T/C [23]: 7.03%
- viability, T/C [24]: 5.84%
- viability, T/C [43]: 6.77%
- viability, T/C [44]: 7.36%
- viability, T/C [27]: 6.75%
- viability, T/C [28]: 7.55%
- viability, T/C [29]: 6%
- viability, T/C [30]: 8.09%
- viability, T/C [45]: 7.2%
- viability, T/C [46]: 7.32%
- viability, T/C [33]: 6.51%
- viability, T/C [34]: 6.53%
- viability, T/C [35]: 8.66%
- viability, T/C [36]: 8.26%
- viability, T/C [47]: 9.04%
- viability, T/C [48]: 7.8%
